Measured values: publication PMC9030166, “Natural Phaeosphaeride A Derivatives Overcome Drug Resistance of Tumor Cells and Modulate Signaling Pathways” (Pharmaceuticals, 2022)
pIC50: −log10 of the molar value.

Experiments:
CREB (pSer133) = test: MILLIPLEX MAP 9-Plex, CREB active form in A431 lysates; format: cell-based, human; details: A431 cell lysates, 10 μM, 1 h, M ± mx; control 154.5 ± 34.2
Source text: (§1) We used the MILLIPLEX MAP Multi-Pathway Magnetic Bead 9-Plex-Cell Signaling Multiplex Assay, which allows the simultaneous detection of nine phosphorylated proteins that are markers of the main intracellular signaling pathways (phosphorylation site is indicated in parentheses), a universal transcription factor that controls the expression of immune response genes; apoptosis and cell cycle NFκB (pS536); cAMP-dependent transcription factor (CREB (pS133); mitogen-activated kinase p38 (pT180/pY182); stress-activated protein kinase JNK (pT183/pY185); ribosomal […]; transcription factors STAT3 (pS727) and STAT5A/B (pY694/699); protein kinase B (Akt) (pS473); and kinase regulated by extracellular signals ERK1/2 (pT185/pY187).
(§2) The effect of various concentrations of PPA derivatives on the cell culture was studied using xCelligence RTCA equipment (AceaBioscience, San Diego, CA, USA). The concentration closest to the IC50 (10 μM) was chosen as the experimental concentration. The selected concentration of phaeosphaeride A derivatives allows for the assessment of the early effect of compounds on cells and compares their effectiveness. In this experiment, the signaling pathways Akt (pSer473), p70S6K (pThr412), NFkB (p65-pSer536), and CREB (pSer133) were not activated (Table 8). The stress-activated signaling pathways ERK/MAP kinase 1/2 (pThr185/pTyr187), JNK (pThr183/pTyr185), and p38 (pThr180/pTyr182) were activated for these compounds.
(§3) We used a MILLIPLEX MAP Multi-Pathway Magnetic Bead 9-Plex-Cell Signaling Multiplex Assay kit (Merck/Millipore), according to the manufacturer’s protocol. A431 cells were cultured in DMEM with 10% FBS in 24-well plates. Compounds were added to the subconfluent cells at a concentration of 10 μM in DMEM medium for 1 h. Each compound was added in 5 experimental repeats. Cell lysates were prepared with lysis buffer (Millipore) with protease inhibitors (Complete, Roche); the protein concentration in the lysates was determined by the Lowry method. In samples equalized in protein concentration, the active forms of kinase cascades were determined using a Bio-Plex 200 fluorescent analyzer (Bio-Rad).

STAT5 (pTyr694/699) = test: MILLIPLEX MAP 9-Plex, STAT5 active form in A431 lysates; format: cell-based, human; details: A431 cell lysates, 10 μM, 1 h, M ± mx; control 44.2 ± 10.2
Source text: as §1, §2, §3

STAT3 (pSer727) = test: MILLIPLEX MAP 9-Plex, STAT3 active form in A431 lysates; format: cell-based, human; details: A431 cell lysates, 10 μM, 1 h, M ± mx; control 70.7 ± 18.3
Source text: as §1, §2, §3

JNK (pThr183/pTyr185) = test: MILLIPLEX MAP 9-Plex, JNK active form in A431 lysates; format: cell-based, human; details: 10 μM
Source text: as §1, §2, §3

A431 cells = test: IC50 on A431 cells (xCelligence RTCA cell index); format: cell-based; details: Homo sapiens, A-431
Source text: A431 cells are characterized by a high inducibility of transcription factors STAT3 and STAT5. In turn, phaeosphaeride A and its derivatives are probably inhibitors of the STAT3 gene. Therefore, the A431 cell line was chosen as a model for searching for possible targets for the action of phaeosphaeride A derivatives. Table 7 presents IC50 data for phaeosphaeride A derivatives on A431 cells.
as §2
To determine the integral cellular response using the xCelligence RTCA equipment (AceaBioscience, Santa Clara, CA, USA), 20 thousand cells were inoculated into a well of a specialized plate allowing the determination of the cell index in real time and cultured in complete growth medium. The next day after the seeding, the medium was replaced with an experimental one (compounds at concentrations of […]). The cell index was monitored for 3 days after the addition of the xenobiotic. The concentration closest to the IC50 (10 μM) was chosen as the experimental concentration.

STAT3/DNA binding = target: STAT3/DNA binding; set-up: method as in PMID 18668431; details: read-out: IC50 value, inhibition of STAT3/DNA binding; cited from earlier work
Akt (pSer473) = test: MILLIPLEX MAP 9-Plex, Akt active form in A431 lysates; format: cell-based, human; details: A431 cell lysates, 10 μM, 1 h, M ± mx; control 76.4 ± 16.9
Source text: as §1, §2, §3

p70S6K (pThr389/412) = test: MILLIPLEX MAP 9-Plex, p70S6K active form in A431 lysates; format: cell-based, human; details: A431 cell lysates, 10 μM, 1 h, M ± mx; control 39.9 ± 7.2
Source text: as §1, §2, §3

p38 (pThr180/pTyr182) = test: MILLIPLEX MAP 9-Plex, p38 active form in A431 lysates; format: cell-based, human; details: 10 μM
Source text: as §1, §2, §3

[1] = system: ERK 1/2 (pThr185/pTyr187); test: MILLIPLEX MAP 9-Plex, ERK 1/2 active form in A431 lysates; format: cell-based, human; details: 10 μM
Source text: as §1, §2, §3

pIC50 (A431 cells): < 4.30
activation of signaling pathway ERK/MAP kinase 1/2 (pThr185/pTyr187), in words ([1]; A431 cells): only slightly activated
Structure (SMILES): C=C1C2=C(C(=O)N1OC)[C@H](O)[C@@](C)(O)[C@H](CCCCC)O2 [PPA, phaeosphaeride A]
CREB (pSer133) fluorescence intensity (CREB (pSer133)): 291.0 ± 32.8 *↑ rel. units
STAT5 (pTyr694/699) fluorescence intensity (STAT5 (pTyr694/699)): 82.5 ± 3.5 *↑ rel. units
STAT3 (pSer727) fluorescence intensity (STAT3 (pSer727)): 128.8 ± 2.4 *↑ rel. units
JNK (pThr183/pTyr185) fluorescence intensity (JNK (pThr183/pTyr185); A431 cell lysates, 1 h, M ± mx, control 50.9 ± 10.5): 132.8 ± 9.1 *↑ rel. units
activation of signaling pathway JNK (pThr183/pTyr185), in words (JNK (pThr183/pTyr185); A431 cells): only slightly activated
pIC50 (STAT3/DNA binding): 3.21
Akt (pSer473) fluorescence intensity (Akt (pSer473)): 123.5 ± 4.9 *↑ rel. units
p70S6K (pThr389/412) fluorescence intensity (p70S6K (pThr389/412)): 46.1 ± 2.9 rel. units
p38 (pThr180/pTyr182) fluorescence intensity (p38 (pThr180/pTyr182); A431 cell lysates, 1 h, M ± mx, control 567.7 ± 266.6): 1459.1 ± 117.6 *↑ rel. units
activation of signaling pathway p38 (pThr180/pTyr182), in words (p38 (pThr180/pTyr182); A431 cells): only slightly activated
ERK ½ (pThr185/pTyr187) fluorescence intensity ([1]; A431 cell lysates, 1 h, M ± mx, control 839.7 ± 248.9): 995.4 ± 46.5 rel. units
